Consider one compound from publication PMC4833387 (PLoS ONE, 2016).

The structures appear in SMILES notation.

The target of the assay is T1, Aurora B kinase (Homo sapiens, UniProt Q96GD4).
T1 construct: gene AURKB; 6×His-Aurora B/INCENP^(822–918); with INCENP^(822–918)
The assay is described as follows: in vitro […] kinase assay with recombinant complex (histone H3.[…] and MBP substrates); confirmed by IP kinase assay from HeLa lysates. The format is biochemical.

T1 sequence (Q96GD4 whole entry): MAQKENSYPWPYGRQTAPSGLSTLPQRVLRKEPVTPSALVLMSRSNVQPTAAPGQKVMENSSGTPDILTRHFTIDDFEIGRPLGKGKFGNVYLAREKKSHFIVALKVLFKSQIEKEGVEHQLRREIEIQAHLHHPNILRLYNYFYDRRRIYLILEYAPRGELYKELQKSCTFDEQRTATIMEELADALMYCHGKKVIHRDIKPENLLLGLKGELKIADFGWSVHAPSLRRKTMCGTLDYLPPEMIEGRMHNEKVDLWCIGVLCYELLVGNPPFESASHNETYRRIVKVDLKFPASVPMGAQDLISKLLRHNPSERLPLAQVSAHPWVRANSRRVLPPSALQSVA
T1 sequence (Q9NQS7 822-918 partner): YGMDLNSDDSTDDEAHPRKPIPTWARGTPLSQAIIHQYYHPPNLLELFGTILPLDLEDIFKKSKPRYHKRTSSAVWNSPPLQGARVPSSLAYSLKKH

For `CC(=O)c1cnc2ccc(-c3cc(Cl)c(O)c(Cl)c3)nc2c1N[C@H]1CC[C@H](CN(C)C)CC1` [OTSSP167], the IC50 – broadly, the concentration at which inhibition is half-maximal – is about 25 nM.
